From the supplement of paper PMC10331698
± gives the standard deviation of the averaged measurements.

How the values were obtained:
Assay in all cases: level (log10 ratio to DMSO vehicle control); higher = higher biomarker level / cell amount than vehicle control
[1] = compound: C=C(C)C(=O)OCCC(F)(F)C(F)(F)C(F)(F)C(F)(F)C(F)(F)C(F)(F)C(F)(F)C(F)(F)F [8:2 Fluorotelomer methacrylate] (in DMSO)
Protocol: (§1)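 BioMAP Diversity Plus panel of 12 human primary cell co-culture systems (3C, 4H, LPS, SAg, BT, BF4T, BE3C, CASM3C, HDF3CGF, KF3CT, MyoF, Mphg). Compounds were added 1 h before stimulation and left for 24 h (MyoF 48 h; BT 72 h for soluble read-outs or 6 d for IgG). Biomarkers were read by ELISA, cytotoxicity by SRB, PBMC viability and proliferation by Alamar Blue. Each well value was divided by the mean of 8 DMSO control wells on the same plate and log10 transformed; duplicate blinded samples were tested at 4 concentrations.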

[2] = compound: CN(C(=O)C(F)(F)C(F)(F)C(F)(F)F)[Si](C)(C)C [N-Methyl-N-trimethylsilylheptafluorobutyramide] (in DMSO)
Protocol: as §1

[3] = compound: CO[Si](C)(CCC(F)(F)C(F)(F)C(F)(F)C(F)(F)C(F)(F)C(F)(F)F)OC [Dimethoxymethyl((perfluorohexyl)ethyl)silane] (in DMSO)
Protocol: as §1

[4] = compound: C[C@@H]1C[C@H]2[C@@H]3CCC4=CC(=O)C=C[C@]4(C)[C@@]3(F)[C@@H](O)C[C@]2(C)[C@@]1(O)C(=O)COP(=O)(O)O [Dexamethasone sodium phosphate] (in DMSO)
Protocol: as §1

[5] = compound: NS(=O)(=O)C(F)(F)C(F)(F)C(F)(F)C(F)(F)C(F)(F)C(F)(F)C(F)(F)C(F)(F)F [Perfluorooctanesulfonamide] (in DMSO)
Protocol: as §1

Perfluoroundecanoic acid = compound: O=C(O)C(F)(F)C(F)(F)C(F)(F)C(F)(F)C(F)(F)C(F)(F)C(F)(F)C(F)(F)C(F)(F)C(F)(F)F [Perfluoroundecanoic acid] (in DMSO); details: 6700 nM
Protocol: as §1

[6] = compound: O=C(O)C(F)(F)OC(F)(F)C(F)(F)OC(F)(F)C(F)(F)OC(F)(F)C(F)(F)C(F)(F)C(F)(F)F [Perfluoro-3,6,9-trioxatridecanoic acid] (in DMSO); details: 6700 nM
Protocol: as §1

[7] = compound: O=S(=O)(O)C(F)(F)C(F)(F)C(F)(F)C(F)(F)C(F)(F)C(F)(F)C(F)(F)F [Perfluoroheptanesulfonic acid] (in DMSO)
Protocol: as §1

Test System	level (log10) ([1]; 6700 nM)	level (log10) ([1]; 20000 nM)	level (log10) ([2]; 6700 nM)	level (log10) ([2]; 20000 nM)	level (log10) ([2]; 60000 nM)	level (log10) ([3]; 6700 nM)	level (log10) ([3]; 20000 nM)	level (log10) ([4]; 1500 nM)	level (log10) ([4]; 4400 nM)	level (log10) ([4]; 13000 nM)	level (log10) ([4]; 40000 nM)	level (log10) ([5]; 6700 nM)	level (log10) ([5]; 20000 nM)	level (log10) (Perfluoroundecanoic acid)	level (log10) [6]	level (log10) ([7]; 1500 nM)	level (log10) ([7]; 4400 nM)	level (log10) ([7]; 13000 nM)	level (log10) ([7]; 40000 nM)
KF3CT:CXCL10/IP-10	-0.0125 ± 0.0035	-0.011 ± 0.0028	-0.0095 ± 0.026	-0.011 ± 0.021	-0.0085 ± 0.0021	-0.0155 ± 0.0064	-0.008 ± 0.0028	0.0015 ± 0.0021	0.01 ± 0.0071	0.005	0.0055 ± 0.0064	-0.021 ± 0.0028	-0.205 ± 0.0092	-0.054 ± 0.017	-0.282 ± 0.12	0.006 ± 0.0014	-0.0045 ± 0.00071	-0.005 ± 0.0042	-0.014 ± 0.0028
HDF3CGF:CXCL11/I-TAC	-0.0105 ± 0.025	-0.0715 ± 0.013	-0.0135 ± 0.0035	-0.015 ± 0.0099	-0.03	-0.026	-0.035 ± 0.014	0.0425 ± 0.00071	0.079 ± 0.082	0.0905 ± 0.012	0.0355 ± 0.087	-0.111 ± 0.013	-0.492 ± 0.028	-0.062 ± 0.024	-0.149 ± 0.013	-0.042 ± 0.054	-0.001 ± 0.0099	-0.035 ± 0.018	-0.0525 ± 0.035
KF3CT:CXCL9/MIG	-0.0035 ± 0.0092	0.004 ± 0.0014	-0.0035 ± 0.0092	-0.0125 ± 0.0092	0.003 ± 0.0071	-0.004	-0.005 ± 0.0028	-0.008 ± 0.024	0.002 ± 0.0014	-0.0075 ± 0.0021	-0.01 ± 0.0014	0.0075 ± 0.0035	-0.032 ± 0.034	0.0135 ± 0.018	-0.0395 ± 0.042	-0.005 ± 0.0071	-0.006 ± 0.0099	-0.005 ± 0.0028	0.014 ± 0.0042
KF3CT:CCL2/MCP-1	-0.0235 ± 0.00071	-0.008 ± 0.033	-0.0175 ± 0.0092	-0.0305 ± 0.021	0.0205 ± 0.056	-0.0325 ± 0.0092	0.008 ± 0.059	-0.0015 ± 0.08	-0.0565 ± 0.049	-0.0105 ± 0.0035	-0.033 ± 0.016	0.025 ± 0.016	0.116 ± 0.037	-0.075 ± 0.011	-0.295 ± 0.023	-0.0115 ± 0.022	-0.011 ± 0.011	0.0015 ± 0.0021	0.0125 ± 0.022
MyoF:TIMP-1	0.0115 ± 0.08	0.0185 ± 0.026	-0.0385 ± 0.019	-0.027 ± 0.014	-0.017	-0.0175 ± 0.0035	-0.0295 ± 0.018	-0.0965 ± 0.047	-0.0915 ± 0.067	-0.135 ± 0.11	-0.12 ± 0.11	-0.007 ± 0.027	-0.098 ± 0.018	-0.117 ± 0.055	-0.112 ± 0.0085	0.021 ± 0.04	0.013 ± 0.061	0.033 ± 0.054	0.11 ± 0.0099
HDF3CGF:CXCL10/IP-10	-0.029 ± 0.021	-0.0425 ± 0.005	0.0155 ± 0.00071	0.0165 ± 0.013	0.005 ± 0.0028	-0.0105 ± 0.026	-0.0165 ± 0.035	0.034 ± 0.025	0.0615 ± 0.052	0.06 ± 0.057	0.009 ± 0.072	-0.216 ± 0.011	-0.893 ± 0.047	-0.144 ± 0.0092	-0.3805 ± 0.00071	0.0115 ± 0.036	-0.0195 ± 0.025	-0.042 ± 0.042	-0.0805 ± 0.00071
CASM3C:LDLR	-0.0085 ± 0.018	0.0055 ± 0.026	-0.006 ± 0.0099	-0.0055 ± 0.005	0.0255 ± 0.035	-0.0135 ± 0.00071	0.0165 ± 0.029	0.05 ± 0.0057	0.03 ± 0.033	0.0065 ± 0.03	0.031 ± 0.05	-0.0095 ± 0.011	-0.0165 ± 0.0078	-0.0265 ± 0.016	-0.029 ± 0.011	-0.0275 ± 0.0021	-0.0135 ± 0.00071	-0.0215 ± 0.0092	-0.0165 ± 0.011
lMphg:CCL2/MCP-1	-0.032	-0.012 ± 0.014	-0.023 ± 0.0085	-0.019 ± 0.0028	0.002 ± 0.034	-0.027 ± 0.0057	0.001 ± 0.033	-0.0595 ± 0.0078	-0.103 ± 0.0064	-0.117 ± 0.021	-0.126 ± 0.0064	-0.032 ± 0.016	-0.0485 ± 0.046	0.0025 ± 0.028	0.001 ± 0.014	-0.009 ± 0.03	-0.004 ± 0.047	0.003 ± 0.0042	0.035 ± 0.0028
CASM3C:HLA-DR	-0.006 ± 0.027	-0.0195 ± 0.046	-0.0175 ± 0.0021	-0.0105 ± 0.012	0.013 ± 0.011	-0.012 ± 0.021	-0.0005 ± 0.0035	0.0495 ± 0.06	0.0425 ± 0.022	0.02 ± 0.013	0.0355 ± 0.023	-0.0045 ± 0.012	-0.004 ± 0.0085	-0.007 ± 0.017	-0.0005 ± 0.0078	-0.011 ± 0.0028	0.009 ± 0.0085	-0.0255 ± 0.028	-0.009 ± 0.031
CASM3C:SRB	-0.006 ± 0.0028	-0.0015 ± 0.005	-0.001 ± 0.0042	0.0085 ± 0.012	-0.002 ± 0.011	-0.006 ± 0.0042	-0.011 ± 0.0028	-0.0005 ± 0.016	-0.008 ± 0.017	-0.013 ± 0.0057	-0.0115 ± 0.00071	0.0075 ± 0.011	-0.0075 ± 0.0021	0.0025 ± 0.0035	0.0025 ± 0.00071	0.004 ± 0.0057	0.0045 ± 0.00071	-0.0075 ± 0.0035	-0.011 ± 0.0014
MyoF:CD106/VCAM-1	-0.0125 ± 0.012	0.002 ± 0.011	-0.0125 ± 0.021	-0.014 ± 0.024	-0.017 ± 0.0085	0.003 ± 0.0042	-0.008 ± 0.018	-0.0825 ± 0.03	-0.046 ± 0.0057	-0.058 ± 0.013	-0.0655 ± 0.016	-0.005 ± 0.023	-0.293 ± 0.088	-0.079 ± 0.018	-0.212 ± 0.048	-0.01 ± 0.0057	-0.0015 ± 0.005	-0.0055 ± 0.015	0.0145 ± 0.0021
CASM3C:CD87/uPAR	-0.006 ± 0.05	-0.022 ± 0.033	-0.016 ± 0.042	-0.028 ± 0.025	-0.012 ± 0.0057	0.007 ± 0.011	-0.0045 ± 0.026	0.0255 ± 0.011	0.0045 ± 0.005	-0.026 ± 0.024	-0.0215 ± 0.076	-0.007 ± 0.031	-0.0055 ± 0.026	-0.0285 ± 0.0078	0.0205 ± 0.018	-0.028 ± 0.042	0.0045 ± 0.049	-0.0165 ± 0.049	-0.0555 ± 0.035
CASM3C:CXCL9/MIG	-0.017 ± 0.011	0.018 ± 0.042	-0.0095 ± 0.005	-0.0065 ± 0.015	0.008 ± 0.03	-0.012 ± 0.017	-0.003 ± 0.013	0.0525 ± 0.037	0.038 ± 0.0085	0.0335 ± 0.0021	0.0595 ± 0.025	-0.0005 ± 0.011	-0.0305 ± 0.022	-0.027 ± 0.0099	-0.01 ± 0.0014	0.012 ± 0.035	-0.008 ± 0.0099	0.0015 ± 0.005	0.037 ± 0.05
